We go through 20 compounds from patent US20260008775A1, “AZOLE MODULATORS OF CHOLESTEROL BIOSYNTHESIS AND THEIR USE FOR PROMOTING REMYELINATION” (GENENTECH, INC., priority 2022, published 2026).

Each structure is given as a SMILES string.

As usually defined, the Ki is a measure of affinity in units of concentration, obtained from inhibition or displacement. What is called EC50 is the midpoint of the concentration-response curve.

Test [1] has as its target human emopamil binding protein and human 7-dehydrocholesterol reductase (hEBP-DHCR7) (Homo sapiens (Human), UniProt Q15125). Nature of the test: hEBP-DHCR7 radioligand binding assay (filter binding, membranes of co-expressing HEK293 cells). As to conditions: competition with [3H] radioligand, 8 doses 0.06 to 5000 nM, Ki calculated from IC50. The gist of the method: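 Membranes from HEK293 cells transiently co-expressing hEBP and DHCR7 (10 μg/well) were incubated for 3 h at 22 °C with tritiated spiro-sulfone radioligand (added at 25 nM) and compound at 1 μM or 0.06–5000 nM. Filtration and scintillation counting followed. Inhibition was normalised to 5 μM unlabelled ligand and DMSO, and Ki was derived as IC50/(1+[L]/Kd).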

The subject of test [2] is zymostenol accumulation (EBP) in EpiSC-derived OPCs. Nature of the test: GC/MS-based sterol profiling, zymostenol accumulation in EpiSC-derived OPCs. It is filed as cell-based, mouse. The following applies: Mus musculus, 24 h, EpiSC-derived OPCs, 24 hr, 8 doses from 0.15 nM to 333 nM; read-out: Mouse Zymostenol GCMS EC50. The gist of the method:
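Mouse epiblast stem cell-derived OPCs plated at 100,000 cells/well in growth-factor-free N2B27 and treated 24 h. Sterols extracted by modified Folch wash, silylated with BSTFA, and quantified by electron-impact GC/MS against cholesterol-d7 (zymostenol ion 458). Zymostenol normalised to 24 h 100 nM positive-control reference.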

For another test, the system named is EpiSC-derived OPCs. The test is described as follows: In vitro phenotypic screening of OPCs, MBP high-content imaging (percentage of oligodendrocytes). It is filed as cell-based, mouse. The following applies: Mus musculus, 72 h, 3 days, MBP stain, dose-response 0.5 nM to 1000 nM; read-out: OPC EC50. On the procedure:
To assess effects of treatments on OPCs, all treatments were assayed in two or more independent platings of epiblast stem cell-derived OPCs (EpiSC). EpiSC-derived OPCs were obtained using in vitro differentiation protocols and culture conditions described previously (Najm et al, 2011, Nature Methods). OPCs were expanded and frozen down in aliquots. OPCs were thawed into growth conditions for at least one passage before use in further assays.
EpiSC-derived OPCs were grown and expanded in poly-L-ornithine (PO) and laminin-coated flasks in N2B27 media (DMEM/F12 (Gibco), N2-MAX (R&D Systems), B-27 (ThermoFisher), and GlutaMax (Gibco)) supplemented with FGF2 (10 μg/mL, R&D systems, 233-FB-025) and PDGF-AA (10 μg/mL, R&D systems, 233-AA-050) before harvesting for experiments. The cells were seeded onto poly-L-ornithine or poly-D-lysine coated CellCarrier Ultra plates (PerkinElmer) coated with laminin (Sigma, L2020) at a density of 150,000/cm^2 in N2B27 media without growth factors. For dose-response testing, a 1000× compound stock in dimethyl sulphoxide (DMSO) was added to assay plates, resulting in 8-point dose curves with final concentrations between 1000 nM and 0.5 nM. Positive controls and DMSO vehicle controls were included in each assay plate. Cells were incubated under standard conditions (37° C., 5% CO2) for 3 days and fixed with 4% paraformaldehyde (PFA) in phosphate buffered saline (PBS) for 20 min. Fixed plates were washed with PBS, permeabilized with 0.1% Triton X-100, and blocked with 10% donkey serum (v/v) in PBS for 40 min. Then, cells were labelled with MBP antibodies (Abcam, ab7349; 1:200) for 2 h at room temperature, washed with PBS, and stained with Alexa Fluor conjugated secondary antibodies (1:500) for 45 min. Nuclei were visualized by DAPI staining (Sigma; […]), followed by further PBS washes.
Cells and cell culture plates were imaged on the Operetta High Content Imaging and Analysis system (PerkinElmer). Analysis (PerkinElmer Harmony and Columbus software) began by identifying intact nuclei stained by DAPI. The peri-nuclear region of each cell was then cross-referenced with the mature myelin protein (MBP) stain to identify oligodendrocyte nuclei, and from this the percentage of oligodendrocytes was calculated. EC50 values were calculated using The Levenberg-Marquardt algorithm to fit a Hill equation to dose-response data (0.5 nM to 1000 nM).

human emopamil binding protein and human 7-dehydrocholesterol reductase (hEBP-DHCR7), sequence (Q15125 whole entry): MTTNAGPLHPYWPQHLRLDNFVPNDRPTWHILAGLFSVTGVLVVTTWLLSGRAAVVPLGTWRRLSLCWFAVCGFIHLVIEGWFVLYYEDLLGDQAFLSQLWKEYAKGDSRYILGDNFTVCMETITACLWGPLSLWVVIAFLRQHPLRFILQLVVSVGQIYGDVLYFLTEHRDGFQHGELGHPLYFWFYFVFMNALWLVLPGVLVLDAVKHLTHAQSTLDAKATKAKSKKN

Regarding `CC(C)n1nc(-c2cccc(C(F)(F)F)c2)nc1[C@H]1[C@@H]2C[C@H](N3CCOC[C@@H]3C)C[C@@H]21` [Compound 67, (S)-4-((1R,3s,5S,6S)-6-(1-Isopropyl-3-(3-(trifluoromethyl)phenyl)-1H-1,2,4-triazol-5-yl)bicyclo[3.1.0]hexan-3-yl)-3-methylmorpholine], the inhibitory constant (Ki) in test [1] is 50 nM. Moreover, the EC50 in test [2] worked out at 66.5 nM; in the test with EpiSC-derived OPCs it was 233 nM.

For `CC(C)n1nc(-c2ccc(OC(F)(F)F)cc2)cc1[C@H]1[C@@H]2C[C@H](N3CCCOCC3)C[C@@H]21` [Compound 185*, 4-((1R,3r,5S,6r)-6-(1-Isopropyl-3-(4-(trifluoromethoxy)phenyl)-1H-pyrazol-5-yl)bicyclo[3.1.0]hexan-3-yl)-1,4-oxazepane], the Ki in test [1] is 12 nM. Also, the EC50 in test [2] turned out to be 7.66 nM; in the test with EpiSC-derived OPCs, 11.3 nM.

Turning to `CC(C)n1nc(-c2cncc(C(F)(F)F)c2)cc1[C@H]1[C@@H]2C[C@H](N3CCO[C@H](C)C3)C[C@@H]21` (single isomer, unassigned) [42*], the Ki in test [1] was 23.6 nM. The EC50 in test [2] stood at 9 nM; with EpiSC-derived OPCs, 43.9 nM.

In the case of `CC(C)n1nc(-c2ccccc2F)cc1[C@H]1[C@@H]2C[C@H](N3CCCOCC3)C[C@@H]21` [Compound 193*, 4-((1R,3r,5S,6r)-6-(3-(2-Fluorophenyl)-1-isopropyl-1H-pyrazol-5-yl)bicyclo[3.1.0]hexan-3-yl)-1,4-oxazepane], in test [1], the inhibition constant Ki is 7.29 nM. Moreover, the EC50 in test [2] was found to be 5.41 nM; with EpiSC-derived OPCs it was 7.12 nM.

In the case of `CC(C)n1nc(-c2cncc(C(F)(F)F)c2)cc1[C@H]1[C@@H]2C[C@H](N3CCOC[C@H]3C)C[C@@H]21` (single isomer, unassigned) [46*], the Ki in test [1] is 34.8 nM. For the same compound, the EC50 was 1.42 nM in test [2] and 0.907 nM with EpiSC-derived OPCs.

For the compound `CC(C)n1nc(-c2ccc(C(F)(F)F)nc2)nc1[C@H]1CC[C@@H](N2CCCOCC2)C1` [Compound 6, 4-((1R,3S)-3-(1-isopropyl-3-(6-(trifluoromethyl)pyridin-3-yl)-1H-1,2,4-triazol-5-yl)cyclopentyl)-1,4-oxazepane], in test [1], the Ki is 34.7 nM. Also, the EC50 in test [2] was 10.5 nM; in the test with EpiSC-derived OPCs it was 34.3 nM.

Turning to `CC(C)n1nc(-c2ccnc(C(F)(F)F)c2)cc1[C@H]1[C@@H]2C[C@H](N3CCOCC3)C[C@@H]21` [Compound 172, 4-((1R,3r,5S,6r)-6-(1-Isopropyl-3-(2-(trifluoromethyl)pyridin-4-yl)-1H-pyrazol-5-yl)bicyclo[3.1.0]hexan-3-yl)morpholine], the Ki in test [1] was 13.4 nM. Also, the half-maximal effective concentration (EC50) turned out to be 4 nM in test [2] and 8.27 nM with EpiSC-derived OPCs.

On to `CC(C)n1nc(-c2ccc(C(F)(F)F)c(F)c2)nc1[C@H]1CC[C@@H](N2CCO[C@H](CF)C2)C1` [Compound 160, (S)-4-((1R,3S)-3-(3-(3-Fluoro-4-(trifluoromethyl)phenyl)-1-isopropyl-1H-1,2,4-triazol-5-yl)cyclopentyl)-2-(fluoromethyl)morpholine], for which the Ki in test [1] is 32.7 nM. Further, the concentration giving a half-maximal response (EC50) in test [2] came to 1.03 nM; in the test on EpiSC-derived OPCs it was 32.7 nM.

For `Cc1ccccc1-c1cc([C@H]2[C@@H]3C[C@H](N4CCCOCC4)C[C@@H]32)n(C(C)C)n1` (single isomer, unassigned) [Compound 197*], the Ki in test [1] is 9.87 nM. Besides, the concentration for a half-maximal effect (EC50) turned out to be 5.46 nM in test [2] and 10.1 nM in the test with EpiSC-derived OPCs.

As to `CC(C)n1nc(-c2cccc(C(F)(F)F)c2)cc1[C@H]1[C@@H]2C[C@@H](N3CCCOCC3)C[C@@H]21` [Compound 175*, 4-((1R,3r,5S,6r)-6-(1-Isopropyl-3-(3-(trifluoromethyl)phenyl)-1H-pyrazol-5-yl)bicyclo[3.1.0]hexan-3-yl)-1,4-oxazepane], in test [1], the inhibitory constant (Ki) is 14.2 nM. Besides, the concentration for a half-maximal effect (EC50) in test [2] was determined as 5.46 nM; in the test with EpiSC-derived OPCs it was 11.3 nM.

For `CC(C)n1nc(-c2cccc(OC(F)F)c2)nc1[C@H]1[C@@H]2C[C@H](N3CCOC[C@H]3C)C[C@@H]21` [Compound 76, (R)-4-((1R,3r,5S,6R)-6-(3-(3-(Difluoromethoxy)phenyl)-1-isopropyl-1H-1,2,4-triazol-5-yl)bicyclo[3.1.0]hexan-3-yl)-3-methylmorpholine], the Ki in test [1] was 15 nM. The figures for the 50% effective concentration (EC50) (in test [2]; in the test on EpiSC-derived OPCs) were 1.18 nM and 1.56 nM, respectively.

With `CC(C)n1nc(-c2cnc(C(F)(F)F)nc2)cc1[C@H]1[C@@H]2C[C@H](N3CCOCC3)C[C@@H]21` [Compound 203, 4-((1R,3r,5S,6r)-6-(1-isopropyl-3-(2-(trifluoromethyl)pyrimidin-5-yl)-1H-pyrazol-5-yl)bicyclo[3.1.0]hexan-3-yl)morpholine], in test [1], the inhibition constant Ki was 27.5 nM. Also, the concentration giving a half-maximal response (EC50) in test [2] is 21.4 nM; in the test with EpiSC-derived OPCs, 97.3 nM.

For the compound `CC(C)n1nc(-c2ccnc(C(F)(F)F)n2)cc1[C@H]1[C@@H]2C[C@@H](N3CCOCC3)C[C@@H]21` [Compound 98, 4-((1R,3s,5S,6r)-6-(1-Isopropyl-3-(2-(trifluoromethyl)pyrimidin-4-yl)-1H-pyrazol-5-yl)bicyclo[3.1.0]hexan-3-yl)morpholine], the Ki in test [1] was 11.7 nM. Besides, the concentration for a half-maximal effect (EC50) in test [2] was 4.86 nM; with EpiSC-derived OPCs it was 30.8 nM.

`CC(C)n1nc(-c2cccc(C(F)(F)F)c2)nc1[C@H]1[C@@H]2C[C@@H](N3CCOC[C@H]3C)C[C@@H]21` (single isomer, unassigned) [71*]: the inhibitory constant (Ki) in test [1] was 29 nM. Moreover, the results for the concentration for a half-maximal effect (EC50) (in test [2]; with EpiSC-derived OPCs) were 205 nM and 749 nM, respectively.

As to `CC[C@@H]1CN([C@@H]2CC[C@H](c3nc(-c4cnc(C(F)(F)F)nc4)nn3C(C)C)C2)CCO1` (single isomer, unassigned) [Compound 109*], the Ki in test [1] was 164 nM. Further, the values for the concentration for a half-maximal effect (EC50) (in test [2]; with EpiSC-derived OPCs) were 44 nM and 285 nM, respectively.

For `CC(C)n1nc(-c2cncc(C(F)(F)F)c2)cc1[C@@H]1CC[C@@H](N2CCCOCC2)C1` (single isomer, unassigned) [65*], in test [1], the inhibition constant (Ki) is 28.2 nM. In addition, the EC50 was determined as 16.2 nM in test [2] and 103 nM with EpiSC-derived OPCs.

`CC(C)n1nc(-c2cccc(C(F)(F)F)c2)nc1[C@H]1[C@@H]2C[C@H](N3CCOCC3)C[C@@H]21` [19*, 4-((1R,3r,5S,6r)-6-(1-isopropyl-3-(3-(trifluoromethyl)phenyl)-1H-1,2,4-triazol-5-yl)bicyclo[3.1.0]hexan-3-yl)morpholine]: the Ki in test [1] is 9.93 nM. The figures for the concentration giving a half-maximal response (EC50) (in test [2]; with EpiSC-derived OPCs) were 7.92 nM and 140 nM, respectively.

As to `CC(C)n1nc(-c2cncc(C(F)(F)F)c2)nc1[C@H]1[C@@H]2C[C@H](N3CCO[C@H](C)C3)C[C@@H]21` [Compound 163, (R)-4-((1R,3r,5S,6R)-6-(1-Isopropyl-3-(5-(trifluoromethyl)pyridin-3-yl)-1H-1,2,4-triazol-5-yl)bicyclo[3.1.0]hexan-3-yl)-2-methylmorpholine], the Ki in test [1] was 32.8 nM. Further, the values for the EC50 (in test [2]; in the test with EpiSC-derived OPCs) were 4.36 nM and 32.8 nM, respectively.

Regarding `CC(C)n1nc(-c2cnc(C(F)(F)F)nc2)nc1[C@H]1CC[C@@H](N2CCO[C@H](CF)C2)C1` [Compound 161, (S)-2-(Fluoromethyl)-4-((1R,3S)-3-(1-isopropyl-3-(2-(trifluoromethyl)pyrimidin-5-yl)-1H-1,2,4-triazol-5-yl)cyclopentyl)morpholine], the Ki in test [1] was 89.3 nM. Further, the EC50 in test [2] was found to be 24 nM; in the test with EpiSC-derived OPCs, 89.3 nM.

On to `CC(C)n1nc(-c2cncc(C(F)(F)F)c2)nc1[C@H]1CC[C@@H](N2CCOCC2)C1` (single isomer, unassigned) [Compound 118*], for which the inhibition constant (Ki) in test [1] was 32.2 nM. Further, the figures for the EC50 (in test [2]; in the test on EpiSC-derived OPCs) were 11.5 nM and 93.2 nM, respectively.
